Data: US7655689B2, “Fused heterocyclic succinimide compounds and analogs thereof, modulators of nuclear hormone receptor function” (Bristol-Myers Squibb Company, priority 2000, dated 2010)
Like-named read-outs stand apart in the source and are kept apart here.

Experiments:
glucocorticoid receptor = glucocorticoid receptor (Homo sapiens, UniProt P04150); details: concentration ≦10 μM, A549 cells
Protocol: A549 cells, which contain endogenous glucocorticoid receptor, were stably transfected with an AP-1 DNA binding site attached to the luciferase gene. […] Cells are plated the day before the assay at approximately 40000 cells/well. […] Activity is measured by analysis in a luminometer as compared to control experiments treated with buffer or dexamethasome.

AR [1] = target: T1, AR (Rattus norvegicus, UniProt P15207)
T1 sequence (P15207 1-902): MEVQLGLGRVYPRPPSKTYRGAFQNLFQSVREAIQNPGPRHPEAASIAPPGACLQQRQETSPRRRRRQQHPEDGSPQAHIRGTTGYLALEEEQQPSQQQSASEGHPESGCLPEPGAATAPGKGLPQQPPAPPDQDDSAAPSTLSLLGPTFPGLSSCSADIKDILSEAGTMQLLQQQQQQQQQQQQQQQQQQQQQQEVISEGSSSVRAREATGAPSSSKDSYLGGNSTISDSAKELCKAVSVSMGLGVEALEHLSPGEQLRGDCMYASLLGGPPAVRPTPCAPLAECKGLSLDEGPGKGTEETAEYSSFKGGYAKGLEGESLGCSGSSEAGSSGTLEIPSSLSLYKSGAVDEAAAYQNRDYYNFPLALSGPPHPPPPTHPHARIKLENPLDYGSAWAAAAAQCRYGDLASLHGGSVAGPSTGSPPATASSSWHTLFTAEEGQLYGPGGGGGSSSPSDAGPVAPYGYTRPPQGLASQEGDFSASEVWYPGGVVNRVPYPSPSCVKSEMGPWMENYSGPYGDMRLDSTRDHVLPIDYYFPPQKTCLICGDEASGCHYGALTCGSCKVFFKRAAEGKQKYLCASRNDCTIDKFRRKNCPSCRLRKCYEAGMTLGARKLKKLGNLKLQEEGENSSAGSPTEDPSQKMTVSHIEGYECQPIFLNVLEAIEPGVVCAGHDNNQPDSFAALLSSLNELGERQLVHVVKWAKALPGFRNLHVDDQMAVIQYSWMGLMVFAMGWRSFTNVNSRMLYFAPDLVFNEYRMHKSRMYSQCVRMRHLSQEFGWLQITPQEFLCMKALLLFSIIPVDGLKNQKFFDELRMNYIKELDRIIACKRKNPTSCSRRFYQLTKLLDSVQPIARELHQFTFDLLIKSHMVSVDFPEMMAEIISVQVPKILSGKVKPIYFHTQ
Source text: The activity of compounds of the present invention as AR agonists was investigated in an immature male rat model, a recognized test of anabolic effects in muscle and sustaining effects in sex organs for a given compound, as described in L. G. Hershberger et al., Proc. Soc. […] Yak. Ken. Nem.
The basis of this assay lies in the well-defined action of androgenic agents on the maintenance and growth of muscle tissues and sexual accessory organs in animals and man. […] J. Anat. […] I. Quantitative data” Boll.-Soc. Ital. Biol. Sper. […] II. Electron-microscopic observations” Boll.-Soc. Ital. Biol. Sper. […] As described above, the effects of androgens on maintenance of male sexual accessory organs, such as the prostate and seminal vesicles, is well described. Castration results in rapid involution and atrophy of the prostate and seminal vesicles. This effect can be reversed by exogenous addition of androgens. Since both the levator ani muscle and the male sex organs are the tissues most responsive to the effects of androgenic agents, this model is used to determine the androgen dependent reversal of atrophy in the levator ani muscle and the sex accessory organs in immature castrated rats. Sexually mature rats (200-250 g, 6-8 weeks-old, Sprague-Dawley, Harlan) were acquired castrated from the vendor (Taconic). […]

AR [2] = target: T1, AR; remark: listed apart in the source

glucocorticoid receptor, sequence (P04150 whole entry): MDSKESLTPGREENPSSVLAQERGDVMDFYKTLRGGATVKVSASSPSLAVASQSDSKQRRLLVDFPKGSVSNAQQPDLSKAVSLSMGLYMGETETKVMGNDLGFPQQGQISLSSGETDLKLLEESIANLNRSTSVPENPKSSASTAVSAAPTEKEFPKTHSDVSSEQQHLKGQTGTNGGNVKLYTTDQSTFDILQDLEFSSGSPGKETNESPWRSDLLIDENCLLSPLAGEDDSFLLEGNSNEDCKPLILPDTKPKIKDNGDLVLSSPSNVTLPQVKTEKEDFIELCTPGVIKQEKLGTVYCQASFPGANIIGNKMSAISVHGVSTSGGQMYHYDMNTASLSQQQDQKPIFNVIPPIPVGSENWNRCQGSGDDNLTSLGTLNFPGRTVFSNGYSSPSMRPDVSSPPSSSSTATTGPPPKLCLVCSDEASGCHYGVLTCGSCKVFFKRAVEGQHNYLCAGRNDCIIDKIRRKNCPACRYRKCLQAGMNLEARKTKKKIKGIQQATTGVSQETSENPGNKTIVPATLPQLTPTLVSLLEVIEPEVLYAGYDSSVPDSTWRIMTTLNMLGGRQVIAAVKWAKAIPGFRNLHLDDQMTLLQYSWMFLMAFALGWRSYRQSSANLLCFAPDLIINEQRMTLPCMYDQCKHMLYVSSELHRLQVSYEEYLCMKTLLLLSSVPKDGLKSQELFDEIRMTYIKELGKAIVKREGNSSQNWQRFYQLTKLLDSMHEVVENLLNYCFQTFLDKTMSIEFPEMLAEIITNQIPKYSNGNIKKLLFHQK

C[C@@H]1C[C@H]2[C@@H]3CCC4=CC(=O)C=C[C@]4(C)[C@@]3(F)[C@@H](O)C[C@]2(C)[C@@]1(O)C(=O)CO [dexamethasone]
suppression of activity (% inhibition of the reporter system vs buffer control with 10 ng/ml PMA) (glucocorticoid receptor): ~65%

CCC(=O)O[C@H]1CC[C@H]2[C@@H]3CCC4=CC(=O)CC[C@]4(C)[C@H]3CC[C@]12C [testosterone propionate, Testosterone Propionate]
EC50 (increase in organ weight) (AR [1]; castrated rats): ~0.03 mg | potency relative to free T (AR [1]; organ weight increase): 10-30 fold | ED80 (AR [2]; immature castrated rat model): 0.1 mg | EC50 (increase in organ weight) (AR [2]; immature castrated rats): ~0.03 mg | potency relative to free T (AR [2]; organ weight increase, immature castrated rats): 10-30 fold
